Where “and” joins values, the source holds several entries; their conditions need not be identical. Identical values can stand only once.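 Dose response: 5 concentrations. Exposure: 48 h. Format: 96-well plates. Endpoint: linear interpolation; highest concentration if not reached. Here, GI50 denotes the concentration required for 50% inhibition of growth. TGI: total growth inhibition.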
How the values were obtained:
Experiment in all cases: DTP human tumour cell line panel, 48 h
M14 melanoma = system: M14 melanoma
OVCAR-3 ovarian = system: OVCAR-3 ovarian
PC-3 prostate = system: PC-3 prostate
MDA-N = system: MDA-N
SR leukemia = system: SR leukemia
HCT-116 colon = system: HCT-116 colon
A549 NSCLC = system: A549 NSCLC
A498 renal = system: A498 renal
IGROV1 ovarian = system: IGROV1 ovarian
CCRF-CEM leukemia = system: CCRF-CEM leukemia

| Compound | TGI (M14 melanoma) | TGI (OVCAR-3 ovarian) | TGI (PC-3 prostate) | TGI (MDA-N) | TGI (SR leukemia) | TGI (HCT-116 colon) | TGI (A549 NSCLC) | TGI (A498 renal) | TGI (IGROV1 ovarian) | TGI (CCRF-CEM leukemia) | GI50 (M14 melanoma) | GI50 (OVCAR-3 ovarian) | GI50 (PC-3 prostate) | GI50 (SR leukemia) | GI50 (HCT-116 colon) | GI50 (A549 NSCLC) | GI50 (IGROV1 ovarian) | GI50 (CCRF-CEM leukemia) | GI50 (A498 renal) |
| --- | --- | --- | --- | --- | --- | --- | --- | --- | --- | --- | --- | --- | --- | --- | --- | --- | --- | --- | --- |
| O=C1c2c(Br)sc(Br)c2[C@@H](O)[C@H]1O | 26.5 µM | 6.25 µM | 33.1 µM | 31.8 µM | 4.84 µM | 32.4 µM | 45 µM | > 100 µM | 35.7 µM | 6.32 µM |  |  |  |  |  |  |  |  |  |
| CN(C)c1ccc(-c2ccc(-c3ccc(C(=N)N)cn3)o2)cc1 | 3.47 µM | 3.24 µM | 2.93 µM |  | 2.01 µM | 2.92 µM | 3.75 µM |  | 3.6 µM | 4.36 µM | 1.85 µM | 1.76 µM | 1.5 µM | 0.378 µM | 1.47 µM | 1.89 µM | 1.89 µM | 1.8 µM |  |
| COc1ccc(N2C(=O)C(=O)C3(CCCCC3)C2=O)c2ccccc12 | > 10 µM |  | > 10 µM | > 10 µM | > 10 µM | > 10 µM | > 10 µM | > 10 µM | > 10 µM | > 10 µM |  |  |  |  |  |  |  |  |  |
| O=c1c2cc(O)ccc2n2nnc3ccc(NCCNCCO)c1c32 | 31.2 µM and 17.9 µM | > 86 µM and 16.3 µM |  |  | 14.7 µM and 4.29 µM | > 100 µM and 28.6 µM | > 100 µM and 28.9 µM | > 87.4 µM and 16.7 µM | > 78.7 µM and 39.1 µM | > 36.6 µM and 10.6 µM | 11.9 µM and 5.64 µM | 14.8 µM and 3.75 µM |  |  |  | 22.9 µM and 5.95 µM | 14.4 µM and 5.57 µM | 1.73 µM and 0.501 µM | 25.1 µM and 6.77 µM |
| CC(=O)c1ccc(Nc2c3ccccc3nc3occc23)cc1 | 2.92 µM |  | > 100 µM | < 0.01 µM | 18.5 µM | > 34.7 µM | > 35.1 µM | 12.6 µM | 0.607 µM | 4.46 µM |  |  |  |  |  |  |  |  |  |
| O=[N+]([O-])c1ccc(N=Nc2c(O)[nH]c3ccccc23)c([N+](=O)[O-])c1 | > 100 µM | 13.9 µM | > 100 µM | > 100 µM | > 100 µM | 49.7 µM | 28 µM | 79.4 µM | 24.2 µM | > 100 µM |  |  |  |  |  |  |  |  |  |
| COc1ccccc1-c1c(C#N)c(N)[nH]c(=S)c1C#N | > 100 µM | > 100 µM | > 100 µM | 67.1 µM | > 100 µM | > 100 µM | > 100 µM | > 100 µM | > 100 µM |  |  |  |  |  |  |  |  |  |  |
| Cc1ccc(-c2cc(-c3ccc(Cl)cc3)nc(/N=C3\C(=O)N(CN(C)C)c4ccccc43)n2)cc1 | > 100 µM | > 100 µM | > 100 µM | 43.9 µM |  | > 100 µM | > 100 µM | > 100 µM | > 100 µM | > 100 µM |  |  |  |  |  |  |  |  |  |
| Nc1nc(SCC(=O)c2ccc(Br)cc2)c2[nH]cnc2n1 | > 100 µM | > 100 µM | > 100 µM | > 100 µM | > 100 µM | > 100 µM | > 100 µM | > 100 µM | 50.8 µM | 47.8 µM |  |  |  |  |  |  |  |  |  |
| COc1cccc(C23CCN(C)C(CC(O)C2)C3)c1OC (stereo not drawn) | > 100 µM | > 100 µM | > 100 µM | > 100 µM | > 100 µM | > 100 µM | > 100 µM | > 100 µM | > 100 µM | > 100 µM |  |  |  |  |  |  |  |  |  |
| CN1CCC(C(O)(c2ccccc2)c2ccc(Br)cc2)CC1 (stereo not drawn) | 28.7 µM | > 100 µM | > 100 µM | 28.2 µM | 47.6 µM | 51.1 µM | > 100 µM |  | > 100 µM | > 100 µM |  |  |  |  |  |  |  |  |  |
| O=P(NCCCO)(OCc1ccccc1)N(CCCl)CCCl (stereo not drawn) |  | > 100 µM |  |  |  | > 100 µM | > 100 µM | > 100 µM | > 100 µM | > 100 µM |  |  |  |  |  |  |  |  |  |
| COc1ccc2nc3cc(Cl)ccc3c(NCCCN3CCN(CCCNc4ccc5nnn6c7ccccc7c(=O)c4c56)CC3)c2c1 | > 25 µM | > 25 µM | > 25 µM | > 25 µM | > 25 µM | > 20.2 µM | > 25 µM | > 25 µM | > 25 µM | > 25 µM |  |  |  |  |  |  |  |  |  |
| COc1ccc(CCn2cncn2)cc1 | > 100 µM | > 100 µM |  |  | > 100 µM | > 100 µM | > 100 µM |  | > 100 µM | > 100 µM |  |  |  |  |  |  |  |  |  |
| CCCCCCCCCCCCCCCc1nc(=S)[nH][nH]1 | > 100 µM | > 100 µM |  |  | > 100 µM | > 100 µM |  | > 100 µM |  | > 100 µM |  |  |  |  |  |  |  |  |  |
| CCOc1nc2c(N3CCCC3)nc(N3CCNCC3)nc2nc1NCc1ccccc1 | 2.98 µM | 2.32 µM | 3.63 µM | 2.31 µM | 3.12 µM | 2.14 µM | 4.26 µM |  | 2.64 µM | 3.49 µM |  |  |  |  |  |  |  |  |  |
